The text below walks through data of patent US7989451B2, “Tricyclic 1,2,4-triazine oxides and compositions for therapeutic use in cancer treatments” (Auckland Uniservices Limited, priority 2005, dated 2011).

Each structure is given as a SMILES string.

In turn, `[O-][n+]1nc(NCCN2CCCCC2)nc2cc3c(cc21)CCC3` [Compound 36, N-[2-(1-Piperidinyl)ethyl]-7,8-dihydro-6H-indeno[5,6-e][1,2,4]triazin-3-amine 1-Oxide] showed a melting point of 151 to 153 °C.
With `CCc1nc2cc3c(cc2[n+]([O-])n1)CC(CO)C3` (stereo not shown) [Compound 142, (3-Ethyl-1-oxido-7,8-dihydro-6H-indeno[5,6-e][1,2,4]triazin-7-yl)methanol] the figure was 122 to 123 °C; with `[O-][n+]1nc(I)nc2cc3c(cc21)CC(CCO)C3` (stereo not shown) [Compound 158, 2-(3-Iodo-1-oxido-7,8-dihydro-6H-indeno[5,6-e][1,2,4]triazin-7-yl)ethanol], 96 to 99 °C; with `CCc1nc2cc3c(cc2[n+]([O-])n1)CC(CN1CCOCC1)C3` (stereo not shown) [Compound 143, 3-Ethyl-7-(4-morpholinylmethyl)-7,8-dihydro-6H-indeno[5,6-e][1,2,4]triazine 1-Oxide], 111 to 112 °C.
With `Nc1nc2cc3c(cc2[n+]([O-])n1)OCCC3` [Compound 239, 7,8-Dihydro-6H-chromeno[6,7-e][1,2,4]triazin-3-amine 1-Oxide] the figure was 280 to 283 °C.
With `COC1CCN(CCCNc2nc3cc4c(cc3[n+]([O-])n2)CCC4)CC1` [Compound 58, N-[3-(4-Methoxy-1-piperidinyl)propyl]-7,8-dihydro-6H-indeno[5,6-e][1,2,4]triazin-3-amine 1-Oxide], the melting point lay in the range of 120 to 121 °C.
Turning to `CN(C)CCNc1nc2ccc3c(c2[n+]([O-])n1)CCCO3` [Compound 236, N^1,N^1-Dimethyl-N^2-(1-oxido-9,10-dihydro-8H-chromeno[6,5-e][1,2,4]triazin-3-yl)-1,2-ethanediamine], the melting point is 119 to 120 °C.
In turn, `CCCN(CCC)CCNc1nc2cc3c(cc2[n+]([O-])n1)CCC3` [Compound 28, N^1-(1-Oxido-7,8-dihydro-6H-indeno[5,6-e][1,2,4]triazin-3-yl)-N^2,N^2-dipropyl-1,2-ethanediamine] showed a melting point of 95 to 97 °C.
In the case of `CC1Cc2cc3nc(N)n[n+]([O-])c3cc2C1` (stereo not shown) [Compound 94, 7-Methyl-7,8-dihydro-6H-indeno[5,6-e][1,2,4]triazin-3-amine 1-Oxide], the melting point lay within 275 to 277 °C.
In turn, `[O-][n+]1nc(NCCN2CCCCCC2)nc2cc3c(cc21)CCC3` [Compound 46, N-[2-(1-Azepanyl)ethyl]-7,8-dihydro-6H-indeno[5,6-e][1,2,4]triazin-3-amine 1-Oxide] registered a melting point of 121 to 123 °C.
The result for `CCc1n[n+]([O-])c2c3c(ccc2[n+]1[O-])CCN(C)C3` [Compound 265, 3-Ethyl-9-methyl-7,8,9,10-tetrahydro[1,2,4]triazino[5,6-h]isoquinoline 1,4-Dioxide] reads 117 to 121 °C.
With `CCN(CC)CCNc1nc2cc3c(cc2[n+]([O-])n1)CCC3` [Compound 26, N^1-(1-Oxido-7,8-dihydro-6H-indeno[5,6-e][1,2,4]triazin-3-yl)-N^2,N^2-diethyl-1,2-ethanediamine] the figure was 109 to 112 °C; with `Nc1nc2cc3c(cc2[n+]([O-])n1)OCC3` [Compound 195, 6,7-Dihydrofuro[3,2-g][1,2,4]benzotriazin-3-amine 1-Oxide], 241 to 246 °C.
Consider `[O-][n+]1nc(NCCCCN2CCOCC2)nc2cc3c(cc21)CCC3` [Compound 62, N-[4-(4-Morpholinyl)butyl]-7,8-dihydro-6H-indeno[5,6-e][1,2,4]triazin-3-amine 1-Oxide], for which the melting point was in the range of 151 to 152 °C.
With `COC1CCN(CCNc2nc3cc4c(cc3[n+]([O-])n2)CCC4)CC1` [Compound 42, N-[2-(4-Methoxy-1-piperidinyl)ethyl]-7,8-dihydro-6H-indeno[5,6-e][1,2,4]triazin-3-amine 1-Oxide] the figure was 131 to 133 °C; with `Nc1nc2cc3c(cc2[n+]([O-])n1)CCC3` [Compound 19, 7,8-Dihydro-6H-indeno[5,6-e][1,2,4]triazin-3-amine 1-Oxide], 270 to 272 °C.
The result for `CCNc1nc2cc3c(cc2[n+]([O-])n1)CCN(C)C3` [Compound 258, N-Ethyl-7-methyl-6,7,8,9-tetrahydro[1,2,4]triazino[6,5-g]isoquinolin-3-amine 1-Oxide] reads 193 to 196 °C; that for `COC1CCCN(CCNc2nc3cc4c(cc3[n+]([O-])n2)CCC4)C1` (stereo not shown) [Compound 40, N-[2-(3-Methoxy-1-piperidinyl)ethyl]-7,8-dihydro-6H-indeno[5,6-e][1,2,4]triazin-3-amine 1-Oxide], 123 to 124 °C; that for `CC(C)(C)OP(=O)(OCCCc1n[n+]([O-])c2cc3c(cc2[n+]1[O-])CCC3)OC(C)(C)C` [Compound 73, 3-(3-(Di-tert-butoxyphosphoryloxy)propyl)-7,8-dihydro-6H-indeno[5,6-e][1,2,4]triazine 1,4-Dioxide], 129 to 131 °C.
Take `CN1CCc2cc3c(cc2C1)nc(Cl)n[n+]3[O-]` [Compound 257, 3-Chloro-7-methyl-6,7,8,9-tetrahydro[1,2,4]triazino[6,5-g]isoquinoline 1-Oxide]: the melting point was 179 °C (dec.).
With `CCNc1nc2cc3c(cc2[n+]([O-])n1)CC(CO)C3` (stereo not shown) [Compound 126, [3-(Ethylamino)-1-oxido-7,8-dihydro-6H-indeno[5,6-e][1,2,4]triazin-7-yl]methanol] the figure was 150 °C.
The result for `CCN(CC)CCNc1nc2cc3c(cc2[n+]([O-])n1)CCO3` [Compound 209, N^1,N^1-Diethyl-N^2-(1-oxido-7,8-dihydrofuro[2,3-g][1,2,4]benzotriazin-3-yl)-1,2-ethanediamine] reads 150 to 151 °C.
With `[O-][n+]1nc(NCCCN2CCOCC2)nc2cc3c(cc21)OCC3` [Compound 199, N-[3-(4-Morpholinyl)propyl]-6,7-dihydrofuro[3,2-g][1,2,4]benzotriazin-3-amine 1-Oxide] the figure was 142 to 144 °C; with `CC1Cc2cc3nc(I)n[n+]([O-])c3cc2C1` (stereo not shown) [Compound 100, 3-Iodo-7-methyl-7,8-dihydro-6H-indeno[5,6-e][1,2,4]triazine 1-Oxide], 140 to 142 °C; with `CCCN(CCC)CCNc1nc2ccc3c(c2[n+]([O-])n1)CCC3` [Compound 10, N^1-(1-Oxido-8,9-dihydro-7H-indeno[5,4-e][1,2,4]triazin-3-yl)-N^2,N^2-dipropyl-1,2-ethanediamine], 148 to 151 °C.
In the case of `C=CCc1nc2cc3c(cc2[n+]([O-])n1)CCC3` [Compound 69, 3-Allyl-7,8-dihydro-6H-indeno[5,6-e][1,2,4]triazine 1-Oxide], the melting point lay in the range of 60 to 61 °C.
With `[O-][n+]1nc(NCCCO)nc2cc3c(cc21)CCC3` [Compound 50, 3-[(1-Oxido-7,8-dihydro-6H-indeno[5,6-e][1,2,4]triazin-3-yl)amino]-1-propanol], the melting point lay in the range of 190 to 190.5 °C.
With `CC1Cc2cc3nc(NCCCN4CCOCC4)n[n+]([O-])c3cc2C1` (stereo not shown) [Compound 98, 7-Methyl-N-[3-(4-morpholinyl)propyl]-7,8-dihydro-6H-indeno[5,6-e][1,2,4]triazin-3-amine 1-Oxide] the figure was 138 to 140 °C; with `CN(C)CCNc1n[n+]([O-])c2cc3c(cc2[n+]1[O-])CCCC3` [Compound 178, N^1-(1,4-Dioxido-6,7,8,9-tetrahydronaphtho[2,3-e][1,2,4]triazin-3-yl)-N^2,N^2-dimethyl-1,2-ethanediamine], 148 to 151 °C.
Molecule `[O-][n+]1nc(NCCN2CCCCC2)nc2ccc3c(c21)CCC3` [Compound 12, N-[2-(1-Piperidinyl)ethyl]-8,9-dihydro-7H-indeno[5,4-e][1,2,4]triazin-3-amine 1-Oxide] returned a melting point of 152 to 155 °C.
With `CN(C)CCNc1nc2ccc3c(c2[n+]([O-])n1)CCC3` [Compound 6, N^1,N^1-Dimethyl-N^2-(1-oxido-8,9-dihydro-7H-indeno[5,4-e][1,2,4]triazin-3-yl)-1,2-ethanediamine] the figure was 186 to 190 °C; with `Nc1nc2cc3c(cc2[n+]([O-])n1)CC(CCO)C3` (stereo not shown) [Compound 157, 2-(3-Amino-1-oxido-7,8-dihydro-6H-indeno[5,6-e][1,2,4]triazin-7-yl)ethanol], 230 to 235 °C; with `Nc1nc2ccc3c(c2[n+]([O-])n1)CCC3` [Compound 4, 8,9-Dihydro-7H-indeno[5,4-e][1,2,4]triazin-3-amine 1-Oxide], 270 to 274 °C.
With `O=CCCc1nc2cc3c(cc2[n+]([O-])n1)CCC3` [Compound 75, 3-(1-oxido-7,8-dihydro-6H-indeno[5,6-e][1,2,4]triazin-3-yl)propanal] the figure was 72 to 74 °C.
The result for `C=CCc1nc2cc3c(cc2[n+]([O-])n1)CC(CO[Si](C)(C)C(C)(C)C)C3` (stereo not shown) reads 49 to 52 °C; that for `[O-][n+]1nc(NCCCN2CCOCC2)nc2cc3c(cc21)CCC3` [Compound 60, N-[3-(4-Morpholinyl)propyl]-7,8-dihydro-6H-indeno[5,6-e][1,2,4]triazin-3-amine 1-Oxide], 139 to 141 °C.
As for `CN(C)CCNc1nc2cc3c(cc2[n+]([O-])n1)CCCCC3` [Compound 188, N^1,N^1-Dimethyl-N^2-(1-oxido-7,8,9,10-tetrahydro-6H-cyclohepta[g][1,2,4]benzotriazin-3-yl)-1,2-ethanediamine], the melting point was in the range of 149 to 152 °C.
With `O=CCCc1nc2cc3c(cc2[n+]([O-])n1)CCO3` [Compound 214, 3-(1-Oxido-7,8-dihydrofuro[2,3-g][1,2,4]benzotriazin-3-yl)propanal] the figure was 140 to 142 °C.
With `CN1CCc2ccc3nc(N)n[n+]([O-])c3c2C1` [Compound 262, 9-Methyl-7,8,9,10-tetrahydro[1,2,4]triazino[5,6-h]isoquinolin-3-amine 1-Oxide] the figure was 226 to 229 °C.
The result for `CCNc1n[n+]([O-])c2cc3c(cc2[n+]1[O-])CC(CO)C3` (stereo not shown) [Compound 127, [3-(Ethylamino)-1,4-dioxido-7,8-dihydro-6H-indeno[5,6-e][1,2,4]triazin-7-yl]methanol] reads 153 to 155 °C.

Usually melting point stands for the temperature of the solid-liquid transition.
